pEC50, pIC50: −log10 of the molar value.
Columns and labels:
[1] = molecular target: TMPRSS2 (Homo sapiens, UniProt O15393, Q253D/R252D/R255K/S251D/S254D); assay: Fluorogenic kinetic enzyme inhibitor assay, TMPRSS2; format: biochemical
[2] = test system: chimeric VSV SARS-CoV-2 virus; conditions: chimeric VSV virus
[3] = molecular target: hepsin (Homo sapiens, UniProt P05981); assay: Fluorogenic kinetic enzyme inhibitor assay, hepsin; format: biochemical
[4] = molecular target: Factor Xa (Homo sapiens, UniProt P00742); assay: Chromogenic kinetic enzyme assay, Factor Xa; format: biochemical
[5] = molecular target: thrombin (Homo sapiens, UniProt P00734); assay: Chromogenic kinetic enzyme assay, thrombin; format: biochemical
[6] = molecular target: T1, matriptase (Homo sapiens, UniProt Q9Y5Y6); assay: Fluorogenic kinetic enzyme inhibitor assay, matriptase; format: biochemical
T1 sequence (Q9Y5Y6 615-855): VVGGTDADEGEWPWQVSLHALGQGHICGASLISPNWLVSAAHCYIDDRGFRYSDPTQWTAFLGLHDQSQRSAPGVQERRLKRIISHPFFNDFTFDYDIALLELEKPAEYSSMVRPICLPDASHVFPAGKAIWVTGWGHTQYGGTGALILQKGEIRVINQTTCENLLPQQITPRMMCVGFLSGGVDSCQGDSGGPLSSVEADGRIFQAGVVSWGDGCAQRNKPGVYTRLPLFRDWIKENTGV

[7] = molecular target: T2, HGFA (Homo sapiens, UniProt Q04756); assay: Fluorogenic kinetic enzyme inhibitor assay, HGFA; format: biochemical
T2 sequence (Q04756 373-655): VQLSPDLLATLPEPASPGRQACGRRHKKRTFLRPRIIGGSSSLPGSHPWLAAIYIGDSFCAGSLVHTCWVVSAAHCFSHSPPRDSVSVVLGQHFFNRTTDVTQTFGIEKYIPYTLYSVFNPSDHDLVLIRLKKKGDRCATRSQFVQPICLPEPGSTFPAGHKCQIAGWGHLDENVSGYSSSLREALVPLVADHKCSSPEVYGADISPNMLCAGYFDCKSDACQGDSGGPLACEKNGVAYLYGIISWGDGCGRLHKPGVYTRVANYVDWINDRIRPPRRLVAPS

[8] = test system: influenza A virus strain A/California/4/2009 (pdmH1N1); conditions: for H1N1 titer Log fold reduction (1 μM): virus strain A/California/4/2009 (pdmH1N1, 72 h, 1 μM); for H1N1 titer Log fold reduction (10 μM): virus strain A/California/4/2009 (pdmH1N1, 72 h, 10 μM)

Sequence of Factor Xa (P00742 235-488 limits assumed): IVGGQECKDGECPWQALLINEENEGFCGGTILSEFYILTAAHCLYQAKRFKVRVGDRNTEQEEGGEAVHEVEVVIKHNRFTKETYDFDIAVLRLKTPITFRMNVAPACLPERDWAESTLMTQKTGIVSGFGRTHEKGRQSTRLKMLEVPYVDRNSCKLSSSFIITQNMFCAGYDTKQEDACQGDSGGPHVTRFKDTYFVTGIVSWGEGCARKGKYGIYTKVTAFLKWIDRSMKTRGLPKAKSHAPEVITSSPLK
Sequence of Factor Xa (P00742 41-179 partner limits assumed): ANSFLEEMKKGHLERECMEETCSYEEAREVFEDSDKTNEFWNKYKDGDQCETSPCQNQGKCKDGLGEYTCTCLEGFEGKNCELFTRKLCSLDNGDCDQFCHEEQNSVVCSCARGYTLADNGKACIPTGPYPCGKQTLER
Sequence of TMPRSS2 (O15393 109-492 S251D/R252D/Q253D/S254D/R255K limits assumed): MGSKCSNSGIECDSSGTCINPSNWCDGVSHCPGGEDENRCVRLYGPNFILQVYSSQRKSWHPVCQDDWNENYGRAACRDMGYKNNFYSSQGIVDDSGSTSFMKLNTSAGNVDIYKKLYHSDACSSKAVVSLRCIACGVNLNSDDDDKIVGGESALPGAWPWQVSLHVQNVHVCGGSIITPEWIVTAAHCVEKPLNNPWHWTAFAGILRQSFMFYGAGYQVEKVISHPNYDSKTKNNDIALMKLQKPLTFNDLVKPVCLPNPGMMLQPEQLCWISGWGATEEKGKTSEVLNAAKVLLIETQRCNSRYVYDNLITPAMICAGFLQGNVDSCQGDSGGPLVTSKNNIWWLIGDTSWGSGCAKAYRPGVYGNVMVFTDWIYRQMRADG
Sequence of hepsin (P05981 163-417 limits assumed): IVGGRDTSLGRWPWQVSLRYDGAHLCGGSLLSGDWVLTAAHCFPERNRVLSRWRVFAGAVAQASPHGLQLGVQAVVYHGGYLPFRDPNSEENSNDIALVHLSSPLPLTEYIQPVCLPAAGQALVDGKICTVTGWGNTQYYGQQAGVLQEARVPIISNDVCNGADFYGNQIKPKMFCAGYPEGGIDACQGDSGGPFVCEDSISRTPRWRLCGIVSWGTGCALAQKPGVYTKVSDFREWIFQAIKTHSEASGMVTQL
Sequence of hepsin (P05981 45-162 partner limits assumed): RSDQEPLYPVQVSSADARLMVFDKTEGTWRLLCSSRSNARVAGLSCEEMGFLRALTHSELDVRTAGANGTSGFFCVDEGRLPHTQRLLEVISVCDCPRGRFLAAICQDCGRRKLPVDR

What does the source list for `CC[C@H](C)[C@H](NC(C)=O)C(=O)N[C@@H](CCC(N)=O)C(=O)N[C@@H](CO)C(=O)N[C@@H](CCCNC(=N)N)C(=O)c1nc2ccccc2s1` [MM3177, Ac-IQSR-kbt]?
pIC50 [1]: 8.35; pEC50 [2]: 7.44; pIC50 [3]: 8.62; pIC50 [4]: 5.76; pIC50 [5]: < 4.70; pIC50 [6]: 8.89; pIC50 [7]: 4.70

How did the pIC50 [1] turn out when `CC[C@H](C)[C@H](NC(C)=O)C(=O)N[C@@H](CCC(N)=O)C(=O)N[C@H](C(=O)N[C@H](CCCNC(=N)N)C(=O)c1nc2ccccc2s1)C(C)C` [MM3180-1, Ac-IQVdR-kbt] was run?
Its pIC50 is 8.54.

And the pIC50 [3]?
Its pIC50 is 8.76.

What about the pIC50 [4] of the same molecule?
The pIC50 was < 4.70.

What about the pIC50 [5] of the same molecule?
The pIC50 was < 4.70.

What about the pIC50 [6] of the same molecule?
The pIC50 was 7.64.

What about the pIC50 [7] of the same molecule?
Its pIC50 is 4.84.

What does the source list for `CC[C@H](C)[C@H](NC(C)=O)C(=O)N[C@H](Cc1c[nH]c2ccccc12)C(=O)N[C@@H](Cc1ccccc1)C(=O)N[C@@H](CCCNC(=N)N)C(=O)c1nc2ccccc2s1` [MM4038, Ac-IdWFR-kbt]?
pIC50 [1]: 10.40; pEC50 [2]: 6.65; H1N1 titer Log fold reduction (1 μM) [8]: 2.1; H1N1 titer Log fold reduction (10 μM) [8]: 3.0; pIC50 [3]: 7.92; pIC50 [5]: < 4.70; pIC50 [6]: 7.60; pIC50 [7]: 7.18

With `CC[C@H](C)[C@H](NC(C)=O)C(=O)N[C@@H](CCC(N)=O)C(=O)N[C@H](C(=O)N[C@@H](CCCNC(=N)N)C(=O)c1nc2ccccc2s1)C(C)C` [MM3180, Ac-IQVR-kbt] as the molecule, how does the pIC50 [1] read?
Its pIC50 is 10.52.

And the pEC50 [2]?
The pEC50 was 7.92.

And the “H1N1 Fold inhibition @ 0.1 μM” value [8]?
Its value is 2.

And the “H1N1 Fold inhibition @ 1 μM” value [8]?
Its value is 135.

And the “H1N1 Fold inhibition @ 10 μM” value [8]?
Its value is 359.

And the “H1N1 titer Log fold reduction (1 μM)” value [8]?
The value was 2.1.

What about the “H1N1 titer Log fold reduction (10 μM)” value [8] of the same molecule?
Its value is 2.6.

And the pIC50 [3]?
The pIC50 was 9.96.

What about the pIC50 [5] of the same molecule?
The pIC50 was < 4.70.

What about the pIC50 [6] of the same molecule?
The pIC50 was 9.12.

What about the pIC50 [7] of the same molecule?
Its pIC50 is 6.10.

`CC[C@H](C)[C@H](NC(C)=O)C(=O)N[C@@H](CCC(N)=O)C(=O)N[C@@H](Cc1c[nH]c2ccccc12)C(=O)N[C@@H](CCCNC(=N)N)C(=O)c1nc2ccccc2s1` [MM3187, Ac-IQWR-kbt] was tested. Which pIC50 [1] did it give?
Its pIC50 is 8.66.

What about the pEC50 [2] of the same molecule?
The pEC50 was 7.66.

And the pIC50 [3]?
Its pIC50 is 9.49.

And the pIC50 [4]?
Its pIC50 is 6.89.

And the pIC50 [5]?
Its pIC50 is < 4.70.

And the pIC50 [6]?
The pIC50 was 8.92.

What about the pIC50 [7] of the same molecule?
The pIC50 was 5.84.

Which results are given for `CC[C@H](C)[C@H](NC(C)=O)C(=O)N[C@@H](CCC(N)=O)C(=O)N[C@H](C(=O)N[C@@H](CCCNC(=N)N)C(=O)c1nc2ccccc2s1)[C@@H](C)O` [MM3186, Ac-IQTR-kbt]?
pIC50 [1]: 9.77; pEC50 [2]: 7.72; pIC50 [3]: 9.01; pIC50 [4]: < 4.70; pIC50 [5]: < 4.70; pIC50 [6]: 7.80; pIC50 [7]: 4.74

With `CC[C@H](C)[C@H](NC(C)=O)C(=O)N[C@@H](CCC(N)=O)C(=O)N[C@@H](Cc1ccccc1)C(=O)N[C@@H](CCCNC(=N)N)C(=O)c1nc2ccccc2s1` [MM3116, Ac-IQFR-kbt] as the molecule, how does the pIC50 [1] read?
Its pIC50 is 8.77.

And the pEC50 [2]?
Its pEC50 is 8.44.

And the pIC50 [3]?
Its pIC50 is 9.85.

And the pIC50 [4]?
Its pIC50 is 6.10.

What about the pIC50 [5] of the same molecule?
Its pIC50 is < 4.70.

What about the pIC50 [6] of the same molecule?
The pIC50 was 9.04.

And the pIC50 [7]?
The pIC50 was 7.52.

`CC[C@H](C)[C@H](NC(C)=O)C(=O)N[C@@H](CCC(=O)O)C(=O)N[C@@H](Cc1ccccc1)C(=O)N[C@@H](CCCNC(=N)N)C(=O)c1nc2ccccc2s1` [MM4037, Ac-IEFR-kbt] was tested. Which pIC50 [1] did it give?
Its pIC50 is 9.96.

And the pEC50 [2]?
The pEC50 was 7.62.

And the pIC50 [3]?
The pIC50 was 9.46.

And the pIC50 [5]?
The pIC50 was < 4.70.

And the pIC50 [6]?
The pIC50 was 8.62.

What about the pIC50 [7] of the same molecule?
Its pIC50 is 6.56.

`CC[C@H](C)[C@H](NC(C)=O)C(=O)N[C@@H](CO)C(=O)N[C@@H](Cc1ccccc1)C(=O)N[C@@H](CCCNC(=N)N)C(=O)c1nc2ccccc2s1` [MM4009, Ac-ISFR-kbt] was tested. Which pIC50 [1] did it give?
Its pIC50 is 10.15.

And the pEC50 [2]?
Its pEC50 is 7.40.

What about the “H1N1 Fold inhibition @ 0.1 μM” value [8] of the same molecule?
Its value is 2.

And the “H1N1 Fold inhibition @ 1 μM” value [8]?
Its value is 3.

And the “H1N1 Fold inhibition @ 10 μM” value [8]?
The value was 743.

What about the “H1N1 titer Log fold reduction (1 μM)” value [8] of the same molecule?
Its value is 0.62.

And the “H1N1 titer Log fold reduction (10 μM)” value [8]?
The value was 3.4.

What about the pIC50 [3] of the same molecule?
The pIC50 was 9.07.

What about the pIC50 [5] of the same molecule?
The pIC50 was < 4.70.

What about the pIC50 [6] of the same molecule?
Its pIC50 is 8.33.

And the pIC50 [7]?
The pIC50 was 6.74.

Which results are given for `CC[C@H](C)[C@H](NC(C)=O)C(=O)N[C@@H](CCC(N)=O)C(=O)N[C@@H](C)C(=O)N[C@@H](CCCNC(=N)N)C(=O)c1nc2ccccc2s1` [MM3178, Ac-IQAR-kbt]?
pIC50 [1]: 9.64; pEC50 [2]: 7.96; H1N1 Fold inhibition @ 0.1 μM [8]: 2; H1N1 Fold inhibition @ 1 μM [8]: 91; H1N1 Fold inhibition @ 10 μM [8]: 238; H1N1 titer Log fold reduction (1 μM) [8]: 2.0; H1N1 titer Log fold reduction (10 μM) [8]: 2.4; pIC50 [3]: 8.89; pIC50 [4]: 6.77; pIC50 [5]: < 4.70; pIC50 [6]: 10.00; pIC50 [7]: < 4.70

— paper doi:10.1101/2025.05.09.652710v1 (bioRxiv, 2025)
